Results taken from article PMC11364104, “Discovery of SARS-CoV-2 papain-like protease (PL^pro) inhibitors with efficacy in a murine infection model” (Science Advances, 2024).
Where two headings read alike, the source gives them in different places.

Columns and labels:
SARS-CoV-2 = test: microbe, parasite or virus in culture; format: cell-based
[1] = RRCK passive permeability; settings: dog, MDCK
[2] = Metabolic stability in cryopreserved human hepatocytes
SARS-CoV-2 PL^pro = SARS-CoV-2 PL^pro (Severe acute respiratory syndrome coronavirus 2, UniProt P0DTD1); test: PLpro enzymatic assay (Z-RLRGG-AMC substrate cleavage); format: biochemical; settings: geometric mean of at least three replicates
in vitro [3] = settings: dog, MDCK
in vitro [4] = settings: human, hepatocytes
[5] = Severe acute respiratory syndrome coronavirus 2, Vero C1008, read-out: SARS-CoV-2 Vero E6 EC50 (nM)*

| Compound | EC50 (SARS-CoV-2; [5]) [nM] | Papp [1] [×10⁻⁶ cm/s] | hepatocyte CLint [2] [µL/min/1e6 cells] | Ki (SARS-CoV-2 PL^pro) [nM] | EC50 (SARS-CoV-2; Severe acute respiratory syndrome coronavirus 2, Vero C1008, read-out: EC50, cytopathic effect (CPE)) [nM] | Papp (in vitro [3]) [×10⁻⁶ cm/s] | hepatocyte CLint (in vitro [4]) [µL/min/1e6 cells] |
| --- | --- | --- | --- | --- | --- | --- | --- |
| Cc1ccc(N2CCN(C)CC2)cc1C(=O)N[C@H](C)c1cc(-c2cnn(C)c2)nc2ccccc12 [Compound 3] | 652 | 41.9 | 12.8 |  |  |  |  |
| Cc1ccccc1C(=O)N[C@H](C)c1cc(-c2cnn(C)c2)nc2ccccc12 [Compound 2] | 1580 | 42 | 13.9 | 116 |  |  |  |
| Cc1ccc(N)cc1C(=O)N[C@H](C)c1cccc2ccccc12 [Compound 1] |  |  |  |  | 68200 | 45.6 | 20.9 |
